Literature values as cited in patent US10946025B2, “Compounds” (Glaxo Group Limited, priority 2009, dated 2021).

Experiments:
neutrophil = settings: background literature; for superoxide release: neutrophils
neutrophils = settings: treatment of neutrophils; Thelen et al. 1994

| SMILES | neutrophil migration (neutrophil) | superoxide release (neutrophil) | fMLP-induced respiratory burst response (neutrophils) |
| --- | --- | --- | --- |
| O=c1cc(N2CCOCC2)oc2c(-c3ccccc3)cccc12 [LY294002] | block | block | – |
| COC[C@H]1OC(=O)c2coc3c2[C@@]1(C)C1=C(C3=O)[C@@H]2CCC(=O)[C@@]2(C)C[C@H]1OC(C)=O [wortmannin] | block | block | prevents |
